Laboratory results reported in ChEMBL document CHEMBL1671762, “Tolerance of benznidazole in treatment of Chagas' disease in adults” (Antimicrob Agents Chemother, 2010).

Experiments:
Homo sapiens [1] = test: Toxicity in human patient infected with Trypanosoma cruzi assessed as occurrence of Arthromyalgia at 5 mg/kg/day for 60 days; assay type: organism-based; conditions: in vivo, 1440 h
Homo sapiens [2] = species on record: Homo sapiens; test: Toxicity in human patient infected with Trypanosoma cruzi assessed as occurrence of thrombopenic purpura after 2nd week of treatment; assay type: organism-based; conditions: in vivo
Homo sapiens [3] = species on record: Homo sapiens; test: Toxicity in human patient infected with Trypanosoma cruzi assessed as occurrence of lymphadenopathy; assay type: organism-based; conditions: in vivo
Homo sapiens [4] = species on record: Homo sapiens; test: Toxicity in human patient infected with Trypanosoma cruzi assessed as occurrence of paresthesias on 4th week of treatment; assay type: organism-based; conditions: in vivo
Homo sapiens [5] = species on record: Homo sapiens; test: Toxicity in human patient infected with Trypanosoma cruzi assessed as occurrence of myalgias; assay type: organism-based; conditions: in vivo
Homo sapiens [6] = test: Toxicity in human patient infected with Trypanosoma cruzi assessed as occurrence of Hearing impairment at 5 mg/kg/day for 60 days; assay type: organism-based; conditions: in vivo, 1440 h
Homo sapiens [7] = test: Toxicity in human patient infected with Trypanosoma cruzi assessed as occurrence of Dyshidrosis at 5 mg/kg/day for 60 days; assay type: organism-based; conditions: in vivo, 1440 h
Homo sapiens [8] = test: Toxicity in human patient infected with Trypanosoma cruzi assessed as occurrence of Aphthous stomatitis at 5 mg/kg/day for 60 days; assay type: organism-based; conditions: in vivo, 1440 h
Homo sapiens [9] = test: Toxicity in human patient infected with Trypanosoma cruzi assessed as occurrence of cardiac disorders at 5 mg/kg/day for 60 days; assay type: organism-based, Heart; conditions: in vivo, 1440 h
Homo sapiens [10] = species on record: Homo sapiens; test: Toxicity in human patient infected with Trypanosoma cruzi assessed as occurrence of hypersensitivity on day 7 to 10; assay type: organism-based; conditions: in vivo
Homo sapiens [11] = test: Toxicity in human patient infected with Trypanosoma cruzi assessed as occurrence of Vomiting at 5 mg/kg/day for 60 days; assay type: organism-based; conditions: in vivo, 1440 h
Homo sapiens [12] = test: Toxicity in human patient infected with Trypanosoma cruzi assessed as occurrence of Petechial rash at 5 mg/kg/day for 60 days; assay type: organism-based; conditions: in vivo, 1440 h
Homo sapiens [13] = test: Toxicity in human patient infected with Trypanosoma cruzi assessed as occurrence of Headache at 5 mg/kg/day for 60 days; assay type: organism-based; conditions: in vivo, 1440 h
Homo sapiens [14] = test: Toxicity in human patient infected with Trypanosoma cruzi assessed as occurrence of Heartburn at 5 mg/kg/day for 60 days; assay type: organism-based; conditions: in vivo, 1440 h
Homo sapiens [15] = test: Toxicity in human patient infected with Trypanosoma cruzi assessed as occurrence of Hyperpigmentation at 5 mg/kg/day for 60 days; assay type: organism-based; conditions: in vivo, 1440 h
Homo sapiens [16] = test: Toxicity in human patient infected with Trypanosoma cruzi assessed as occurrence of Edema at 5 mg/kg/day for 60 days; assay type: organism-based; conditions: in vivo, 1440 h
Homo sapiens [17] = test: Toxicity in human patient infected with Trypanosoma cruzi assessed as occurrence of Diarrhea at 5 mg/kg/day for 60 days; assay type: organism-based; conditions: in vivo, 1440 h
Homo sapiens [18] = test: Toxicity in human patient infected with Trypanosoma cruzi assessed as occurrence of Dermatological disorder at 5 mg/kg/day for 60 days; assay type: organism-based; conditions: in vivo, 1440 h
Homo sapiens [19] = test: Toxicity in human patient infected with Trypanosoma cruzi assessed as occurrence of Fever at 5 mg/kg/day for 60 days; assay type: organism-based; conditions: in vivo, 1440 h
Homo sapiens [20] = test: Toxicity in human patient infected with Trypanosoma cruzi assessed as occurrence of Abdominal bloating at 5 mg/kg/day for 60 days; assay type: organism-based, Abdomen; conditions: in vivo, 1440 h
Homo sapiens [21] = test: Toxicity in human patient infected with Trypanosoma cruzi assessed as occurrence of Paresthesia at 5 mg/kg/day for 60 days; assay type: organism-based; conditions: in vivo, 1440 h
Homo sapiens [22] = species on record: Homo sapiens; test: Toxicity in human patient infected with Trypanosoma cruzi assessed as occurrence of polyneuritis on 4th week of treatment; assay type: organism-based; conditions: in vivo
Homo sapiens [23] = species on record: Homo sapiens; test: Toxicity in human patient infected with Trypanosoma cruzi assessed as occurrence of arthralgias; assay type: organism-based; conditions: in vivo
Homo sapiens [24] = species on record: Homo sapiens; test: Toxicity in human patient infected with Trypanosoma cruzi assessed as occurrence of agranulocytosis after 2nd week of treatment; assay type: organism-based; conditions: in vivo
Homo sapiens [25] = test: Toxicity in human patient infected with Trypanosoma cruzi assessed as occurrence of dolichocolon at 5 mg/kg/day for 60 days; assay type: organism-based, Colon; conditions: in vivo, 1440 h
Homo sapiens [26] = test: Toxicity in human patient infected with Trypanosoma cruzi assessed as occurrence of Itching at 5 mg/kg/day for 60 days; assay type: organism-based; conditions: in vivo, 1440 h
Homo sapiens [27] = test: Toxicity in human patient infected with Trypanosoma cruzi assessed as occurrence of Dysphagia at 5 mg/kg/day for 60 days; assay type: organism-based; conditions: in vivo, 1440 h
Homo sapiens [28] = test: Toxicity in human patient infected with Trypanosoma cruzi assessed as occurrence of Articular involvement at 5 mg/kg/day for 60 days; assay type: organism-based; conditions: in vivo, 1440 h
Homo sapiens [29] = test: Toxicity in human patient infected with Trypanosoma cruzi assessed as occurrence of Epigastralgia at 5 mg/kg/day for 60 days; assay type: organism-based; conditions: in vivo, 1440 h
Homo sapiens [30] = species on record: Homo sapiens; test: Toxicity in human patient infected with Trypanosoma cruzi assessed as occurrence of dermatitis with cutaneous eruptions on day 7 to 10; assay type: organism-based; conditions: in vivo
Homo sapiens [31] = test: Toxicity in human patient infected with Trypanosoma cruzi assessed as occurrence of Nausea at 5 mg/kg/day for 60 days; assay type: organism-based; conditions: in vivo, 1440 h
Homo sapiens [32] = test: Toxicity in human patient infected with Trypanosoma cruzi assessed as occurrence of Palmar-plantar rash at 5 mg/kg/day for 60 days; assay type: organism-based; conditions: in vivo, 1440 h
Homo sapiens [33] = test: Toxicity in human patient infected with Trypanosoma cruzi assessed as occurrence of Urticaria at 5 mg/kg/day for 60 days; assay type: organism-based; conditions: in vivo, 1440 h
Homo sapiens [34] = test: Toxicity in human patient infected with Trypanosoma cruzi assessed as occurrence of Mucositis at 5 mg/kg/day for 60 days; assay type: organism-based; conditions: in vivo, 1440 h
Homo sapiens [35] = test: Toxicity in human patient infected with Trypanosoma cruzi assessed as occurrence of Gastrointestinal disorders at 5 mg/kg/day for 60 days; assay type: organism-based; conditions: in vivo, 1440 h
Homo sapiens [36] = test: Toxicity in human patient infected with Trypanosoma cruzi assessed as occurrence of Erythema nodosum at 5 mg/kg/day for 60 days; assay type: organism-based; conditions: in vivo, 1440 h
Homo sapiens [37] = test: Toxicity in human patient infected with Trypanosoma cruzi assessed as occurrence of Anorexia at 5 mg/kg/day for 60 days; assay type: organism-based; conditions: in vivo, 1440 h
Homo sapiens [38] = test: Toxicity in human patient infected with Trypanosoma cruzi assessed as occurrence of Weakness at 5 mg/kg/day for 60 days; assay type: organism-based; conditions: in vivo, 1440 h
Homo sapiens [39] = species on record: Homo sapiens; test: Toxicity in human patient infected with Trypanosoma cruzi assessed as occurrence of polyneuropathy on 4th week of treatment; assay type: organism-based; conditions: in vivo
Homo sapiens [40] = test: Toxicity in human patient infected with Trypanosoma cruzi assessed as occurrence of Arthritis at 5 mg/kg/day for 60 days; assay type: organism-based; conditions: in vivo, 1440 h

Structure (SMILES): O=C(Cn1ccnc1[N+](=O)[O-])NCc1ccccc1 [BENZNIDAZOLE]
- Activity (Homo sapiens [1]): Toxic
- Activity (Homo sapiens [2]): Toxic
- Activity (Homo sapiens [3]): Toxic
- Activity (Homo sapiens [4]): Toxic
- Activity (Homo sapiens [5]): Toxic
- Activity (Homo sapiens [6]): 1%
- Activity (Homo sapiens [7]): Toxic
- Activity (Homo sapiens [8]): 1%
- Activity (Homo sapiens [9]): 12.4%
- Activity (Homo sapiens [10]): Toxic
- Activity (Homo sapiens [11]): Toxic
- Activity (Homo sapiens [12]): 35.8%
- Activity (Homo sapiens [13]): 56.2%
- Activity (Homo sapiens [14]): Toxic
- Activity (Homo sapiens [15]): Toxic
- Activity (Homo sapiens [16]): Toxic
- Activity (Homo sapiens [17]): Toxic
- Activity (Homo sapiens [18]): 50.5%
- Activity (Homo sapiens [19]): 11%
- Activity (Homo sapiens [20]): Toxic
- Activity (Homo sapiens [21]): 27.6%
- Activity (Homo sapiens [22]): Toxic
- Activity (Homo sapiens [23]): Toxic
- Activity (Homo sapiens [24]): Toxic
- Activity (Homo sapiens [25]): 1.9%
- Activity (Homo sapiens [26]): 13.2%
- Activity (Homo sapiens [27]): Toxic
- Activity (Homo sapiens [28]): 36.2%
- Activity (Homo sapiens [29]): Toxic
- Activity (Homo sapiens [30]): Toxic
- Activity (Homo sapiens [31]): Toxic
- Activity (Homo sapiens [32]): Toxic
- Activity (Homo sapiens [33]): 43.4%
- Activity (Homo sapiens [34]): Toxic
- Activity (Homo sapiens [35]): 15%
- Activity (Homo sapiens [36]): Toxic
- Activity (Homo sapiens [37]): 40%
- Activity (Homo sapiens [38]): 30%
- Activity (Homo sapiens [39]): Toxic
- Activity (Homo sapiens [40]): Toxic
